From ChEMBL document CHEMBL1139671, “Nuphar alkaloids with immediately apoptosis-inducing activity from Nuphar pumilum and their structural requirements for the activity” (2006)
Activity calls are given as the source filed them. The calls are words filed in the database; no cut-off is given here.

How the values were obtained:
B16-F10 [1] = assay: Cytotoxicity against B16F10 cells at 0.1 uM after 48 hrs; assay type: functional; conditions: Mus musculus, B16-F10, 48 h
B16-F10 [2] = assay: Cytotoxicity against B16F10 cells at 1.0 uM after 48 hrs; assay type: functional; conditions: Mus musculus, B16-F10, 48 h
B16-F10 [3] = assay: Cytotoxicity against B16F10 cells at 10 uM after 48 hrs; assay type: functional; conditions: Mus musculus, B16-F10, 48 h
B16-F10 [4] = assay: Cytotoxicity against B16F10 cells at 0.1 uM after 72 hrs; assay type: functional; conditions: Mus musculus, B16-F10, 72 h
B16-F10 [5] = assay: Cytotoxicity against B16F10 cells at 1.0 uM after 72 hrs; assay type: functional; conditions: Mus musculus, B16-F10, 72 h
B16-F10 [6] = assay: Cytotoxicity against B16F10 cells at 10 uM after 72 hrs; assay type: functional; conditions: Mus musculus, B16-F10, 72 h
HT-1080 [7] = assay: Cytotoxicity against HT1080 cells at 0.1 uM after 24 hrs; assay type: functional; conditions: Homo sapiens, HT-1080, 24 h
HT-1080 [8] = assay: Cytotoxicity against HT1080 cells at 10 uM after 72 hrs; assay type: functional; conditions: Homo sapiens, HT-1080, 72 h
U-937 [9] = assay: Induction of apoptosis in U937 cells by DNA fragmentation assay; assay type: functional, cell-based; conditions: Homo sapiens
HT-1080 [10] = assay: Cytotoxicity against HT1080 cells at 1.0 uM after 24 hrs; assay type: functional; conditions: Homo sapiens, HT-1080, 24 h
HT-1080 [11] = assay: Cytotoxicity against HT1080 cells at 10 uM after 24 hrs; assay type: functional; conditions: Homo sapiens, HT-1080, 24 h
HT-1080 [12] = assay: Cytotoxicity against HT1080 cells at 0.1 uM after 48 hrs; assay type: functional; conditions: Homo sapiens, HT-1080, 48 h
HT-1080 [13] = assay: Cytotoxicity against HT1080 cells at 1.0 uM after 48 hrs; assay type: functional; conditions: Homo sapiens, HT-1080, 48 h
HT-1080 [14] = assay: Cytotoxicity against HT1080 cells at 10 uM after 48 hrs; assay type: functional; conditions: Homo sapiens, HT-1080, 48 h
HT-1080 [15] = assay: Cytotoxicity against HT1080 cells at 0.1 uM after 72 hrs; assay type: functional; conditions: Homo sapiens, HT-1080, 72 h
HT-1080 [16] = assay: Cytotoxicity against HT1080 cells at 1.0 uM after 72 hrs; assay type: functional; conditions: Homo sapiens, HT-1080, 72 h
U-937 [17] = assay: Cytotoxicity against U937 cells at 1.0 uM after 72 hrs; assay type: functional; conditions: Homo sapiens, U-937, 72 h
U-937 [18] = assay: Cytotoxicity against U937 cells at 10 uM after 72 hrs; assay type: functional; conditions: Homo sapiens, U-937, 72 h
U-937 [19] = assay: Cytotoxicity against U937 cells at 1.0 uM after 24 hrs; assay type: functional; conditions: Homo sapiens, U-937, 24 h
U-937 [20] = assay: Cytotoxicity against U937 cells at 10 uM after 24 hrs; assay type: functional; conditions: Homo sapiens, U-937, 24 h
U-937 [21] = assay: Cytotoxicity against U937 cells at 1.0 uM after 48 hrs; assay type: functional; conditions: Homo sapiens, U-937, 48 h
U-937 [22] = assay: Cytotoxicity against U937 cells at 10 uM after 48 hrs; assay type: functional; conditions: Homo sapiens, U-937, 48 h
B16-F10 [23] = assay: Cytotoxicity against B16F10 cells at 10 uM after 24 hrs; assay type: functional; conditions: Mus musculus, B16-F10, 24 h
B16-F10 [24] = assay: Cytotoxicity against B16F10 cells at 1.0 uM after 24 hrs; assay type: functional; conditions: Mus musculus, B16-F10, 24 h
U-937 [25] = assay: Cytotoxicity against U937 cells at 0.1 uM after 72 hrs; assay type: functional; conditions: Homo sapiens, U-937, 72 h
U-937 [26] = assay: Cytotoxicity against U937 cells at 0.1 uM after 24 hrs; assay type: functional; conditions: Homo sapiens, U-937, 24 h
U-937 [27] = assay: Cytotoxicity against U937 cells at 0.1 uM after 48 hrs; assay type: functional; conditions: Homo sapiens, U-937, 48 h
B16-F10 [28] = assay: Cytotoxicity against B16F10 cells at 0.1 uM after 24 hrs; assay type: functional; conditions: Mus musculus, B16-F10, 24 h
U-937 [29] = assay: Cytotoxicity against U937 cells at 0.03 uM after 72 hrs; assay type: functional; conditions: Homo sapiens, U-937, 72 h
B16-F10 [30] = assay: Cytotoxicity against B16F10 cells at 0.03 uM after 24 hrs; assay type: functional; conditions: Mus musculus, B16-F10, 24 h
B16-F10 [31] = assay: Cytotoxicity against B16F10 cells at 0.03 uM after 48 hrs; assay type: functional; conditions: Mus musculus, B16-F10, 48 h
B16-F10 [32] = assay: Cytotoxicity against B16F10 cells at 0.03 uM after 72 hrs; assay type: functional; conditions: Mus musculus, B16-F10, 72 h
HT-1080 [33] = assay: Cytotoxicity against HT1080 cells at 0.03 uM after 24 hrs; assay type: functional; conditions: Homo sapiens, HT-1080, 24 h
HT-1080 [34] = assay: Cytotoxicity against HT1080 cells at 0.03 uM after 48 hrs; assay type: functional; conditions: Homo sapiens, HT-1080, 48 h
HT-1080 [35] = assay: Cytotoxicity against HT1080 cells at 0.03 uM after 72 hrs; assay type: functional; conditions: Homo sapiens, HT-1080, 72 h
U-937 [36] = assay: Cytotoxicity against U937 cells at 0.03 uM after 24 hrs; assay type: functional; conditions: Homo sapiens, U-937, 24 h
U-937 [37] = assay: Cytotoxicity against U937 cells at 0.03 uM after 48 hrs; assay type: functional; conditions: Homo sapiens, U-937, 48 h

| SMILES | inhibition at 0.1 µM (B16-F10 [1]) [%] | inhibition at 1 µM (B16-F10 [2]) [%] | inhibition at 10 µM (B16-F10 [3]) [%] | inhibition at 0.1 µM (B16-F10 [4]) [%] | inhibition at 1 µM (B16-F10 [5]) [%] | inhibition at 10 µM (B16-F10 [6]) [%] | inhibition at 0.1 µM (HT-1080 [7]) [%] | inhibition at 10 µM (HT-1080 [8]) [%] | inhibition at 1 µM (HT-1080 [10]) [%] | inhibition at 10 µM (HT-1080 [11]) [%] | inhibition at 0.1 µM (HT-1080 [12]) [%] | inhibition at 1 µM (HT-1080 [13]) [%] | inhibition at 10 µM (HT-1080 [14]) [%] | inhibition at 0.1 µM (HT-1080 [15]) [%] | inhibition at 1 µM (HT-1080 [16]) [%] | inhibition at 1 µM (U-937 [17]) [%] | inhibition at 10 µM (U-937 [18]) [%] | inhibition at 1 µM (U-937 [19]) [%] | inhibition at 10 µM (U-937 [20]) [%] | inhibition at 1 µM (U-937 [21]) [%] | other results |
| --- | --- | --- | --- | --- | --- | --- | --- | --- | --- | --- | --- | --- | --- | --- | --- | --- | --- | --- | --- | --- | --- |
| C[C@@H]1CC[C@@H](c2ccoc2)N2C[C@@]3(CC[C@@H]12)CS[C@@]1(CC[C@H]2[C@H](C)CC[C@@H](c4ccoc4)N2[C@@H]1O)C3 | 10.3 | 27.3 | 97.3 | 11.1 | 20.8 | 98.7 | 1.8 | 99.2 | 14 | 96.1 | 1.6 | 8.3 | 97.5 | 5.4 | 15.7 | -1 | 94.3 | 3.6 | 83.2 | 1.3 | Activity (U-937 [9]): Active; inhibition at 10 µM (U-937 [22]): 92.5%; inhibition at 10 µM (B16-F10 [23]): 88.6% |
| C[C@@H]1CC[C@@H](c2ccoc2)N2C[C@@]3(CC[C@@H]12)CS[C@]1(CC[C@H]2[C@H](C)CC[C@@H](c4ccoc4)N2[C@@H]1O)C3 [6-HYDROXYTHIONUPHLUTINE B] | 0.3 | 65 | 98.2 | 0.9 | 69.3 | 99.1 | 6.3 | 98.7 | 42 | 95.9 | 8.6 | 53.3 | 98 | 1 | 63.5 | 85.3 | 94.1 | 74.6 | 80 | 89 | inhibition at 10 µM (U-937 [22]): 91.3%; inhibition at 1 µM (B16-F10 [24]): -22.9%; inhibition at 10 µM (B16-F10 [23]): 91.5% |
| CC[C@@]1(O)C(=O)OCc2c1cc1n(c2=O)Cc2cc3ccccc3nc2-1 [CAMPTOTHECIN] | 39.1 | 83.2 | 94.7 | 76.9 | 93.5 | 98.1 | -0.4 | 93.8 | 49.5 | 62 | -11.7 | 77 | 93.1 | 5.4 | 65.8 | 98.2 | 98 | 75.8 | 75 | 94.6 | inhibition at 0.1 µM (U-937 [25]): 95.3%; inhibition at 0.1 µM (U-937 [26]): 46%; inhibition at 0.1 µM (U-937 [27]): 90.6%; inhibition at 10 µM (U-937 [22]): 98.2%; inhibition at 0.1 µM (B16-F10 [28]): 16.2%; inhibition at 1 µM (B16-F10 [24]): 47.8%; inhibition at 10 µM (B16-F10 [23]): 60.6%; inhibition at 0.03 µM (U-937 [29]): 78.5%; inhibition at 0.03 µM (B16-F10 [30]): -1.9%; inhibition at 0.03 µM (B16-F10 [31]): 7.5%; inhibition at 0.03 µM (B16-F10 [32]): 33.4%; inhibition at 0.03 µM (HT-1080 [33]): -3.8%; inhibition at 0.03 µM (HT-1080 [34]): -7.1%; inhibition at 0.03 µM (HT-1080 [35]): -3.2%; inhibition at 0.03 µM (U-937 [36]): 7.1%; inhibition at 0.03 µM (U-937 [37]): 61.9% |
